# Marks after values point to notes of the source that are not given here.
# Test: In vivo CT of filler nodule volume, density and 3D shape after test solutions 0-8 (Example 3)
# Settings: for Change in Volume as percent of Injected Volume, Day 14/15: Example 3 (Day 14); for Change in Volume as percent of Injected Volume, Day 14/15 / Change in Volume as percent of Injected Volume, Day 0 + 2 h / Change in Volume as percent of Injected Volume, Day 0 + 4 h / Change in Volume as percent of Injected Volume, Day 1 / Change in Volume as percent of Injected Volume, Day 3 / Change in Volume as percent of Injected Volume, Day 7 / Change in Volume as percent of Injected Volume, Day 0 + 1 h 15: mean; for Change in Volume as percent of Injected Volume, Day 0 + 2 h / Change in Volume as percent of Injected Volume, Day 0 + 4 h / Change in Volume as percent of Injected Volume, Day 1 / Change in Volume as percent of Injected Volume, Day 3 / Change in Volume as percent of Injected Volume, Day 7 / Change in Volume as percent of Injected Volume, Day 0 + 1 h 15: Example 3; for Change in Volume as percent of Injected Volume, Day 0 + 1 h 15: 1.5 mL solution into 500 μl nodule
# Procedure: One hour after filler injections (T=1 h), 1.5 mL of selected solutions (Table 5, solutions 0-8, test items, solution 0 is normal saline and not hyperosmotic) were injected each into 9 dermal filler nodules in the right flank (ventral area).
# A total of 7 CT-scans were performed at 1 h 15, 2 h, 4 h, 1 day (24 h), 3, 7 and 14 days after injection of the dermal filler. The clinical state of each animal is assessed once a week by body weight measurement and clinical observations.
# The 10 SC injections of dermal filler on Day 0 were performed in the ventral area, (five nodules on each flank of the ventral area) for each pig. For each SC nodule, a theoretical volume of 500 μl was administered. One hour (±5 min) after injection of dermal filler, SC injection of the different solutions (prepared the day before) were performed into nine (9) nodules of dermal. For each SC nodule, a theoretical volume of 1.5 mL of test solution was administered.
# The X-ray computed tomography acquisitions were performed with the Computed Tomography Scanner BrightSpeed 16 (General Electric). In order to measure the volume and the mean density and to visualize the 3D shape of the dermal filler (Radiesse® filler with or without test solution) injected, in vivo CT-scans were performed on Day 0: 1 h 15 (±10 min), 2 h (±15 min) and 4 h (±20 min), on Day 1 (24 h+1 h), Day 3, Day 7 and Day 14.
# During CT acquisition on Day 0, the pigs received an IM injection of anesthesia. The animals were maintained under anesthesia until the CT acquisition at T=2 h (2 h after dermal filler injection session). Between these CT acquisitions, the animals were under surveillance in the recovery room on a heating mat with fluidotherapy. At the end of the CT acquisition at T=2 h, the pigs received a tattoo around each injected site. During the CT acquisitions at T=4 h and on Days 1, 3, 7 and 14, pigs received an IM injection of anesthesia. For the CT-scans, animals were positioned in dorsal recumbency and acquisitions were centered on the injection sites. The parameters of the CT-scan are described in Table 5.
# The CT acquisition was analyzed with the software Avizo version 9.2.0. The objective of this analysis was to assess the degradation over time of the dermal filler injected by SC route after injection of different test solutions.
# An image segmentation processing was performed on each CT acquisition. First, a manual pre-segmentation was performed around each nodule in order to roughly isolate the voxels corresponding to dermal filler product, which defined a Region of Interest (ROI). Second, an automatic segmentation was applied on the previously defined ROI using a global grey level thresholding procedure.
# On day 0, a farm pig received ten (10) SC injections of Radiesse® dermal filler 0.5 mL (ventral area) (10 nodules in total). One hour after filler injections (T=1 h), 1.5 mL of one of eight test hyperosmotic solutions (1-8 solutions, Table 5) was injected at an injection site. One injection site was untreated and one injection site was treated with normal saline (0.9% wt/v NaCl).
Structure (SMILES),"Change in Volume as percent of Injected Volume, Day 14/15","Change in Volume as percent of Injected Volume, Day 0 + 2 h [%]","Change in Volume as percent of Injected Volume, Day 0 + 4 h [%]","Change in Volume as percent of Injected Volume, Day 1 [%]","Change in Volume as percent of Injected Volume, Day 3","Change in Volume as percent of Injected Volume, Day 7","Change in Volume as percent of Injected Volume, Day 0 + 1 h 15","effect on volume at the filler injection site (after 7 and 14 days, vs untreated)"
"CC(=O)[O-].[Na+] [sol 3, Sodium acetate]",176.61* percent,154.89,165.88,202.12,197.50* percent,189.13* percent,152.73%,
"OC[C@H]1O[C@@](CO)(O[C@H]2O[C@H](CO)[C@@H](O)[C@H](O)[C@H]2O)[C@@H](O)[C@@H]1O [sol 8, Sucrose]",180.45%,167.63,190.95,202.96,207.85%,199.72%,167.87* percent,trend to decrease volume of filler
"O.O.O=P([O-])(O)O.[Na+] [sol 2, Sodium dihydrogen phosphate dihydrate]",179.72* percent,151.58,164.27,198.42,201.11%,201.97%,156.57%,
"OCC(O)CO [sol 6, Glycerol]",173.93* percent,156.43,184.92,200.32,197.65* percent,197.62* percent,151.48%,
